Laboratory results published in patent publication US4619823A, “Radioactive iodine labeled metaraminol and diagnostic agent containing platelets labeled therewith” (Nihon Medi-Physics Co., Ltd., priority 1983, dated 1986).

Test system: not given
Details: background statement; cited from earlier work
In the case of `CC(N)C(O)c1cccc(O)c1` (stereo not drawn) [metaraminol, alpha-(1-aminoethyl)-3-hydroxybenzenemethanol], the toxicity is given as “no practical toxicity problem”.
In the case of `Oc1cccc2cccnc12` [oxine], the toxicity is listed as “relatively high toxicity”.

Test system: platelets
Details: 100 µM
Protocol: Change of the take up rate of ^125 I-labled metaraminol into platelets in coexistence with of a medical compound:
The take up rate of ^125 I-labeled metaraminol into platelets in the coexistence with a medical compound was examined. Calculation was make taking the take up rate in case of ^125 I-labeled metaraminol alone as 100%. ^125 I-labeled metaraminol was added to platelets in a molar concentration of 1×10^-7.
Compound `CNCC(O)c1ccc(O)c(O)c1` (stereo not shown) [Adrenaline] has an activity of 61.6 ± 8.3%.
`CN(C)CCCN1c2ccccc2CCc2ccccc21` [Imipramine] showed an activity of 45.8 ± 6.3%.
`Cc1ccc(N(CC2=NCCN2)c2cccc(O)c2)cc1` [Phentolamine] showed an activity of 43.1 ± 3.4%.
Work on `CC(C)NCC(O)COc1cccc2ccccc12` (stereo not shown) [Propranolol] yielded an activity of 18 ± 3.1%.
`NCCc1c[nH]c2ccc(O)cc12` [Serotonin] gave an activity of 17.1 ± 10.3%.
